Like-named read-outs stand apart in the source and are kept apart here. Marks after values point to notes of the source that are not given here.
Molecular target: T1, RhlR (Pseudomonas aeruginosa, UniProt P54292)
T1 construct: expressed in transfected cells; host or cells: E. coli JLD271 (K-12 ΔlacX74 sdiA271::Cam) carrying pJN105-R2 (RhlR expression) and pSC11-rhlI (rhlI'-lacZ reporter)
Assay: E. coli (JLD271) RhlR reporter antagonism assay, in competition with BHL
Format: cell-based
Details: for max. RhlR inhibition (%): BHL at 10 μM set to 0%, media control set to 100%
Experimental: To start, the sulfonyl HLs were evaluated for their ability to antagonize RhlR using a previously described E. coli strain (JLD271) harboring a RhlR expression plasmid and a rhlI reporter plasmid. This E. coli reporter produces RhlR, and protein activity in the presence of an added small molecule can be measured via the production of β-galactosidase as quantified via luminescence (see Methods). Compounds were screened in competition against RhlR’s native ligand, BHL (at its EC50 value in this strain, 10 μM), over a range of concentrations to generate antagonism dose–response curves (see Supporting Information) and calculate IC50 values (listed in Table ). A small set of compounds was also screened for RhlR agonism in the E. coli reporter; the agonism assay format was identical to the antagonism assay, except no BHL was added.
RhlR activity in E. coli strain JLD271 (ΔsdiA) was measured via a β-galactosidase reporter (rhI-lacZ) using the Promega Beta-Glo Assay System as previously described. RhlR activity in P. aeruginosa PA14 (ΔrhlIΔlasI) was measured via a GFP reporter (rhlA-gfp). […] See Supporting Information for both reporter protocols.
Supporting Information — Aguirre-Figueroa et al.
E. coli and P. aeruginosa RhlR reporter assay protocols.
E. coli RhlR reporter assay. RhlR activity in E. coli strain JLD271 (ΔsdiA) was measured via a β-galactosidase reporter using the Promega Beta-Glo® Assay System as previously described.10 A schematic of the reporter plasmids and assay protocol is shown in Scheme S1. Briefly, a single colony of E. coli JLD271 harboring the RhlR expression plasmid pJN105-R and the rhlI-lacZ transcriptional fusion reporter pSC11-R (Table S1) was grown in LB medium with 100 μg/mL ampicillin and 10 μg/mL gentamicin overnight (~16 h). The culture was diluted 1:10 in fresh LB medium and grown to an OD600 = 0.25 (0.23–0.28) (~0.5 h). Arabinose was added to a final concentration of 4 mg/mL to induce the expression of pJN105-R. Aliquots (2 μL) of compound DMSO stock solution or serial dilution were added to the inner wells (i.e., non-periphery rows) of a 96-well microtiter plate. To six inner wells, DMSO alone (vehicle) was added as a negative control. For agonism assays, BHL was added to six inner wells as a positive control (to achieve 1 mM). For antagonism assays, BHL was added to six inner wells as a positive control and to all of the other sample wells except for the vehicle control wells (to achieve 10 μM ). Subculture (198 μL) was then dispensed into each inner well. To the outer (periphery) wells, 200 μL of water were added to maintain humidity during incubation. Plates were then incubated for 4 h (shaking) at 37 °C.
Scheme S1. Schematic of E. coli reporter plasmids and assay. (A) Representation of plasmids used in the heterologous reporter system. (B) General reporter assay workflow. BioRender used in […]
After the incubation period, the OD600 of each well was measured using a plate reader. Cell dilution plates were prepared by transferring 10 μL from the incubated culture plate wells to a fresh 96-well plate and adding 90 μL of 18 MΩ water to each well. Next, 10 μL aliquots of diluted Beta-Glo® reagent (1:2 with 18 MΩ water) were added to each well of a white 384-well microtiter plate, followed by 10 μL of culture from each well of the dilution plate. The 384-well plate was incubated (without shaking; i.e., static) for 30 min at 30 °C. After incubation, luminescence of each well was measured using a plate reader. To determine levels of RhlR activity, raw luminescence was divided by OD600 to correct for growth variation and then normalized to the negative (0%) and positive (100%) control wells.
Dose-response reporter assay data for compounds in the E. coli RhlR reporter.
Dose-response curves for RhlR antagonism by compounds against 10 μM BHL using the E. coli JLD271 RhlR reporter are provided below. Compound names are indicated on the x-axis of each plot.
All assays performed in triplicate as at least three separate biological replicates. […]

[1] = IC50, E. coli JLD271 RhlR reporter, against 10 μM BHL
[2] = E. coli JLD271 RhlR reporter, against 10 μM BHL
[3] = read-out: inhibitory potency on average (74, 75 and 18), average over the C4, C5 and C6 ASHLs, E. coli RhlR reporter

T1 sequence (P54292 whole entry): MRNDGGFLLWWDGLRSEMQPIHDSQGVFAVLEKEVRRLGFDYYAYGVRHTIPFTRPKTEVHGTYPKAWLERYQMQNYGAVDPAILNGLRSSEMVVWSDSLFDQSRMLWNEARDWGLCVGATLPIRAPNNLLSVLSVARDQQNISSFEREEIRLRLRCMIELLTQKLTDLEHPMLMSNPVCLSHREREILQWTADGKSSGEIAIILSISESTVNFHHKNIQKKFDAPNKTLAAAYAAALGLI

Structure (SMILES)	max. RhlR inhibition (%) (E. coli RhlR reporter)	IC50 [1] [µM]	also measured
O=C1OCC[C@@H]1NS(=O)(=O)Cc1ccc([N+](=O)[O-])cc1 [Compound 16, 4-NO2 BnSHL]	97%	1290	–
O=C1OCC[C@@H]1NS(=O)(=O)Cc1ccc(F)cc1 [Compound 22, 4-F BnSHL]	94%	205	fold more potent in RhlR than 13 or 16 (E. coli RhlR reporter IC50): approximately 3 fold
O=C1OCC[C@@H]1NS(=O)(=O)c1cccc(Cl)c1Cl [Compound 42, 2,3-di-Cl BSHL]	95%	67.8	fold lower IC50 value than 3-Cl BSHL (28) (E. coli RhlR reporter IC50): over 2 fold
O=C1OCC[C@@H]1NS(=O)(=O)c1cc(Cl)c(F)c(Cl)c1 [Compound 87, 3,5-Cl-4F BSHL]	85%	68	fold higher potency relative to 3,4-di-Cl BSHL (43) (E. coli RhlR reporter IC50): no change in potency
O=C1OCC[C@@H]1NS(=O)(=O)c1ccc(Br)c(Cl)c1 [Compound 73, 3-Cl, 4-Br BSHL]	98%	118	fold less potent than 43 (E. coli RhlR reporter IC50): over 2 fold
Cc1cccc(S(=O)(=O)N[C@H]2CCOC2=O)c1 [Compound 93]	95%	127	–
O=C1OCC[C@@H]1NS(=O)(=O)c1c(Cl)cccc1Cl [Compound 89, 2,6-di-Cl-BSHL]	86%	> 1000	–
O=C(Cc1ccc(C(F)(F)F)cc1)N[C@H]1CCOC1=O [Compound C20, 4-CF3 PHL, reference compound]	93%	10.3	–
O=C1OCC[C@@H]1NS(=O)(=O)c1ccc(F)c([N+](=O)[O-])c1 [Compound 71, 3-NO2,4-F BSHL]	62%	257	–
CCCS(=O)(=O)N[C@H]1CCOC1=O [Compound 72, C3-AHSL]	45 ^f %	–	activity profile in RhlR (E. coli RhlR reporter dose-response curves): weak partial agonist
O=C1OCC[C@@H]1NS(=O)(=O)c1ccc(I)cc1 [Compound 36]	99%	295	–
O=C1OCC[C@@H]1NS(=O)(=O)c1ccc(Cl)c(C(F)(F)F)c1 [Compound 60]	90%	93.1	–
CCCCS(=O)(=O)N[C@H]1CCOC1=O [Compound 74]	70%	–	IC50 [2]: 35.2 µM; IC50 [3]: ~28 µM
CCCCCCS(=O)(=O)N[C@H]1CCOC1=O [Compound 18]	77%	–	IC50 [2]: 36.4 µM; IC50 [3]: ~28 µM
O=C1OCC[C@@H]1NS(=O)(=O)c1cc(Cl)ccc1Cl [Compound 90, 2,5-di-Cl BSHL]	92%	1100	–
O=C1OCC[C@@H]1NS(=O)(=O)c1cc(F)c(F)c(F)c1 [Compound 86, 3,4,5-F BSHL]	80%	24.5	potency gain (33 vs 16, 43 vs 24, 86 vs 45, E. coli RhlR reporter IC50): ≤ 40 fold; fold higher potency relative to 3,4-di-Cl BSHL (43) (E. coli RhlR reporter IC50): over 2 fold
O=C1OCC[C@@H]1NS(=O)(=O)Cc1ccc(Cl)c(Cl)c1 [Compound 44, 3,4-di-Cl BnSHL]	82%	205	–
Cc1ccc(CC(=O)N[C@H]2CCOC2=O)cc1 [Compound C19, 4-Me PHL, reference compound]	89%	5.46	–
O=C1OCC[C@@H]1NS(=O)(=O)c1ccc(C(F)(F)F)cc1 [Compound 37]	99%	333	–
O=C1OCC[C@@H]1NS(=O)(=O)c1ccc(Cl)c(Cl)c1Cl [Compound 45, 2,3,4-tri-Cl BSHL]	80%	1030	reduction of potency relative to 3,4-Cl BSHL (43) (E. coli RhlR reporter IC50): at least 2 orders of magnitude
Cc1ccc(CS(=O)(=O)N[C@H]2CCOC2=O)cc1 [Compound 13, 4-Me BnSHL]	90%	918	fold less potent than parent 4-Me PHL (E. coli RhlR reporter IC50, comparator printed as 19): ~170 fold
O=C1OCC[C@@H]1NS(=O)(=O)c1ccccc1F [Compound 92, 2-fluoro-BSHL]	91%	863	–
O=C1OCC[C@@H]1NS(=O)(=O)c1ccc(F)cc1 [Compound 91]	97%	301	–
